{
  "source": "paper PMC4426631",
  "about": "“Insect antimicrobial peptides show potentiating functional interactions against Gram-negative bacteria” (Proceedings of the Royal Society B: Biological Sciences, 2015)",
  "key": {"E. coli strain D22": {"system": "E. coli strain D22", "parameters": "method as in PMID 9219367", "settings": "E. coli strain D22, which has a defective cell envelope; ref [46]; cited from earlier work", "text": "In the original report, the authors used E. coli strain D22, which has a defective cell envelope."}, "E. coli strain JM83": {"system": "E. coli strain JM83", "test": "E. coli permeabilization assay (β-galactosidase leakage)", "format": "cell-based", "experimental": "The membrane permeabilizing activities of AMPs were determined using E. coli strain JM83 on the basis of β-galactosidase activity leaking from the cytoplasm, as described in detail in the electronic supplementary material. Living bacteria incubated with medium only were used as a negative control and bacteria killed by treatment with 5 µM synthetic cecropin B (Sigma-Aldrich) were used as a positive control (100% permeabilization). Before setting the perforation level of the positive control to 100%, the perforation value obtained for the negative control was subtracted from all other measurements. All assays were carried out three times, each time in triplicate. The results were presented as means ± s.d. (n = 3) based on statistical analysis using Student's t-test. […]\ni) Peptide synthesis and modification.\nThe peptide sequences shown in Tabl es S1 an d S4 were selected according to their repo rted structural and functional properties, synthesized and purified to >95%. […]\nThe membran e p ermeabilizing activities of AMPs were determined using E. coli strain JM83 on the basis of β-gal actosidase activit y leakin g from the c ytoplasm. […] The samples were incubated at 37°C for 90 min and the absorbance was measured at 405 nm , which is proportional to the amount of released β-gal act osidase. […]"}, "E. coli JM83 cells": {"system": "E. coli JM83 cells", "test": "Atomic force microscopy imaging of bacterial cells", "format": "cell-based", "settings": "20 µM abaecin, 1.5 h, 37°C", "experimental": "Bacteria were prepared for imaging as previously described (see electronic supplementary material). The data were analysed with NANOSCOPE […] software v. 1.40 (Veeco, USA). Three fields on each mica disc were imaged. Three-dimensional images and section profiles were prepared using WSXM v. 5.0 software. The roughness values were measured over the entire bacterial cell surface on 3 × 3 µm^2 areas. The average surface root mean square (RMS) roughness was calculated from 25 fields (300 × 300 nm^2). The data were analysed using […] v. 6 (StatSoft, Inc., Tulsa, OK, USA). Statistical significance was determined by ANOVA (Tukey's honestly significant difference test). […]\n5 μM h ymenopt aecin. […] Th e cell surface was imaged in Anal ytical Labo rator y, Facult y of Chemistry, UMCS, Lublin, Poland using a NanoScope V AFM (Veeco, USA. All measurements were carri ed out in “Peak Force QNM” mode usin g an NSG 30 silicon tip with a spring constant of 20 N/m (NT-MDT, Russia). The data were an al yzed wi th Nanoscope Anal ysis software v1.40 (Veeco, USA). Three fields on each mica disk were imaged. Three dimensional images and section profiles were prepared using WSxM v5.0 software. The roughness values were measured over the entire bacterial cell surface on 3×3 µm2 areas. The average surface root-mean-square (RMS) roughness was calculated from 25 fields (300×300 nm2). […]"}},
  "note": "Entries after “also recorded” stand apart in the source; their conditions may differ. Cf = 5(6)-carboxyfluorescein",
  "data": [
    {"substance": "abaecin: proline-rich peptide abaecin, species version not specified at the place (Cf-FVPYNPPRPGQSKPFPSFPGHGPFNPKIQWPYPLPNPGH-NH2)", "values": [
      {"measurement": "antibacterial activity", "setting": "E. coli strain D22", "value": "antibacterial activity was demonstrated"},
      {"measurement": "perforation of the bacterial envelope, abaecin alone", "setting": "E. coli strain JM83; 20 µM abaecin, pH 6.8 phosphate buffer, 45 min, 37°C, 405 nm, relative to 5 µM cecropin B = 100%, n = 3", "value": "approximately 4.8%"},
      {"measurement": "increase in membrane permeability, in words", "setting": "E. coli strain JM83; peptide alone", "value": "only marginally increased"},
      {"measurement": "cell morphology and surface (AFM), abaecin alone", "setting": "E. coli JM83 cells", "value": "smoother than the control cells; also recorded: granules and grooves were visible although less pronounced, and there were fewer flagella"},
      {"measurement": "cell morphology and surface (AFM), abaecin alone", "setting": "E. coli JM83 cells; listed as Abaecin", "value": "no significant impact on gross morphology"}
    ]}
  ]
}
